Where “and” joins values, the source holds several entries; their conditions need not be identical. Equal values may be shown once.
Assays:
[1] = tested on: cardiac tissues of DOX-induced CHF rats; experiment: Heart histopathology (H&E, Masson) and TUNEL apoptosis detection; assay type: in vivo, rat
Procedure: Cardiac tissues were fixed in 4% paraformaldehyde, embedded in paraffin, and sectioned at 4–5 μm thickness. Hematoxylin and eosin (H&E) staining was performed to assess histopathological changes, while Masson’s trichrome staining was used to evaluate cardiac fibrosis. Apoptosis in cardiac tissues was detected using a TUNEL assay kit (C1088, Beyotime, Shanghai, China).

DOX-induced CHF rats [2] = experiment: Serum biochemical parameters (BNP, CK, LDH, ALT, AST) by ELISA kits; assay type: in vivo, rat
Procedure: (§1) Serum biochemical parameters including brain natriuretic peptide (BNP), creatine kinase (CK), lactate dehydrogenase (LDH), alanine aminotransferase (ALT), and aspartate aminotransferase (AST) were measured using commercial ELISA kits (Nanjing Jiancheng Bioengineering Institute, Nanjing, China) according to the manufacturer's instructions. Superoxide dismutase (SOD), and malondialdehyde (MDA) levels in liver and heart tissues were measured using assay kits from […] Biotechnology (Changsha, China). Phenylalanine and tyrosine concentrations in the cell were determined using an ELISA kit from Abmart (Shanghai, China).

Rat body weight = assay type: in vivo; details: CHF rats, treatment vs DOX group, experiment I
Procedure: Experiment I, 48 rats were randomly divided into six groups: (1) the CON group; (2) the DOX group; (3) the DOX + enalapril (ENP, positive control, 1.8 mg/kg) group; (4) the DOX + SXT at low dose group (4 g/kg); (5) the DOX + SXT at middle dose group (8 g/kg); and […] the DOX + SXT at high dose group (16 g/kg). Except those rats in the CON group, the remaining rats received DOX at a 2.5 mg/kg per injection to a cumulative dose of 15 mg/kg. The dose of SXT for the low-dose group was set at 4 g/kg, based on the minimum human clinical daily dose (48.5 g, Table S2) converted to an equivalent rat dose using body surface area normalization (48.5 g/70 kg × 6.3 ≈ 4.4 g/kg, rounded to 4 g/kg). To evaluate a clear dose–response relationship, the medium and high doses were established at 8 g/kg and 16 g/kg, respectively, corresponding to 2 fold and 4 fold the low dose. […] Heart function was monitored by echocardiography analysis at day 39, and the CHF model was considered to be successfully established when the left ventricular ejection fraction (LVEF%) values were reduced to 50%. […]

[3] = tested on: DOX-induced chronic heart failure (CHF) rat model; experiment: Echocardiography (LVEF%, LVFS%) in DOX-induced CHF rats; assay type: in vivo
Procedure: Experiment I, 48 rats were randomly divided into six groups: (1) the CON group; (2) the DOX group; (3) the DOX + enalapril (ENP, positive control, 1.8 mg/kg) group; (4) the DOX + SXT at low dose group (4 g/kg); (5) the DOX + SXT at middle dose group (8 g/kg); and […] the DOX + SXT at high dose group (16 g/kg). Except those rats in the CON group, the remaining rats received DOX at a 2.5 mg/kg per injection to a cumulative dose of 15 mg/kg. The dose of SXT for the low-dose group was set at 4 g/kg, based on the minimum human clinical daily dose (48.5 g, Table S2) converted to an equivalent rat dose using body surface area normalization (48.5 g/70 kg × 6.3 ≈ 4.4 g/kg, rounded to 4 g/kg). To evaluate a clear dose–response relationship, the medium and high doses were established at 8 g/kg and 16 g/kg, respectively, corresponding to 2 fold and 4 fold the low dose. This gradient dosing strategy is consistent with the Technical Guidelines for Pharmacodynamic Studies of Traditional Chinese Medicine and the Technical Guidelines for General Pharmacology Studies of Traditional Chinese Medicine and Natural Drugs, and is further supported by our previous study on the effective dose range of SXT in a rat model of doxorubicin-induced chronic heart failure. Heart function was monitored by echocardiography analysis at day 39, and the CHF model was considered to be successfully established when the left ventricular ejection fraction (LVEF%) values were reduced to 50%. Urinary samples were collected at five time points (0, 10, 20, 30, and 39 d), while fecal samples were collected before the rats were euthanized. Subsequently, the rats were anesthetized, and blood samples and heart and liver tissues were collected. All bio-samples were stored at − 80 °C until analysis.
Experiment II was conducted to specifically confirm the exacerbated cardiac abnormality of phenylalanine in the DOX-induced CHF rats. […] Heart function was detected as in the experiment I.
Echocardiographic (ECG) measurements were performed using M-mode tracings and continuous Doppler with a Vevo 2100 system (Visual Sonics, Toronto, ON, Canada). Rats were anesthetized with isoflurane prior to imaging. Cardiac function indices including left ventricular ejection fraction (LVEF%) and left ventricular fractional shortening (LVFS%) were measured and recorded.

AML12 cells [4] = assay type: cell-based, mouse; details: AML12 cells, dose-dependent
Procedure: (§2) Mouse hepatocellular cell lines (AML12), purchased from the Shanghai Cell Bank of Chinese Academy of Sciences (Shanghai, China), were cultured in Dulbecco’s Modified Eagle Medium (DMEM) supplemented with 10% fetal bovine serum (FBS) and 2 mM L-glutamine and 1% pyruvate and maintained at 37 °C in a […], 5% CO2 incubator. Cells were seeded at a density of 5 × 10^5 cells/well in 6-well plates. […] Cells’ survival rate was detected by Cell Counting Kit-8 (CCK8) Reagents (Thermo Scientific, Singapore).

[5] = tested on: PAH activity in AML12 cells; assay type: cell-based
Procedure: Serum biochemical parameters including brain natriuretic peptide (BNP), creatine kinase (CK), lactate dehydrogenase (LDH), alanine aminotransferase (ALT), and aspartate aminotransferase (AST) were measured using commercial ELISA kits (Nanjing Jiancheng Bioengineering Institute, Nanjing, China) according to the manufacturer’s instructions. Superoxide dismutase (SOD), and malondialdehyde (MDA) levels in liver and heart tissues were measured using assay kits from Aifang Biotechnology (Changsha, China). Phenylalanine and tyrosine concentrations in the cell were determined using an ELISA kit from Abmart (Shanghai, China).
as §2

[6] = molecular target: Phenylalanine hydroxylase (PAH) protein (Homo sapiens, UniProt P00439); experiment: Surface Plasmon Resonance (SPR) analysis, Biacore T200; assay type: binding; details: PAH immobilized on CM5 chip, read-out: dissociation constant (Kd)
Procedure: SPR assays were conducted using a Biacore T200 system (GE Healthcare Life Sciences, USA). Phenylalanine hydroxylase (PAH) protein was immobilized on CM5 sensor chips using an amine-coupling kit (BR100050, GE Healthcare) following standard procedures. […] Samples were injected over reference and PAH-immobilized flow cells at a flow rate of 30 μL/min, with 120 s contact time and 120 s dissociation time. Kinetic parameters were calculated using Biacore T200 evaluation software.

AML12 cells [7] = experiment: AML12 cell viability (CCK8); assay type: cell-based
Procedure: as §2

[8] = molecular target: T1, PAH protein in AML12 cells (Mus musculus, UniProt P16331); experiment: Cellular Thermal Shift Assay (CETSA); assay type: cell-based; details: neomangiferin 10 μM, 24 h, 37-72 °C, vs control group
T1 construct: endogenous in cells; host or cells: AML12 mouse hepatocytes
T1 sequence (P16331 1-453): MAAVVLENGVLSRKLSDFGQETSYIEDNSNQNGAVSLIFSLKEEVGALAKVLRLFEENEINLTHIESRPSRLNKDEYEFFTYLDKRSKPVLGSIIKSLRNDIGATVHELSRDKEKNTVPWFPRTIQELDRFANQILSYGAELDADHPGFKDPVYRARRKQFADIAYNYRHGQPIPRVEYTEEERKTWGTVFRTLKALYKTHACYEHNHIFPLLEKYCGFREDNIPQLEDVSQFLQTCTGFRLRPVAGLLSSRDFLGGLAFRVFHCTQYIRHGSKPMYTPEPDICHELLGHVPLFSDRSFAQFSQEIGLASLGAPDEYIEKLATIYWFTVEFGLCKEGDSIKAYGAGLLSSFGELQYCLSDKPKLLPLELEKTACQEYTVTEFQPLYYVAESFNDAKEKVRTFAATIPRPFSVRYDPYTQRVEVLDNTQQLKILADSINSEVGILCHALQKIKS
Procedure: AML12 cells (5 × 10^5 cells/well) in 6-well plates were divided into two groups, with 8 wells in each group. […] After 24 h, 8 samples of cells from each of the two groups were incubated at specific temperatures (37, 42, 47, 52, 57, 62, 67, and 72 °C) for 3 min and each sample was performed for western blotting analysis.

[9] = tested on: phenylalanine hydroxylase (PAH); experiment: PAH expression in liver and heart (western blotting, immunofluorescence); assay type: in vivo, rat; details: experiment II; DOX vs CON, co-treatments vs DOX
Procedure: Immunofluorescence staining was performed on tissue sections to detect phenylalanine hydroxylase (PAH), prostaglandin-endoperoxide synthase 2 (PTGS2), and reactive oxygen species (ROS). Primary antibodies against PAH and PTGS2 were used, while ROS was detected using the DCFH-DA probe. Nuclei were counterstained with DAPI. Images were captured using a fluorescence microscope.
Protein was extracted from liver or heart tissue samples (30 mg) using lysis buffer. Total protein concentration was determined using a BCA protein assay kit (Thermo Fisher Scientific, USA). Equal amounts of protein from each sample were separated on 10–12% SDS-PAGE gels and transferred to PVDF membranes. Membranes were blocked with quick blocking buffer for 30 min, then incubated with anti-PAH primary antibody (1:1000 dilution) overnight at 4 °C. After washing, membranes were incubated with a secondary antibody for 1 h at 37 °C. Protein bands were visualized using an Odyssey infrared imaging system (JS-1070, Shanghai Peiqing Science & Technology Co., Ltd, China). Band intensities were quantified using ImageJ software.

H9C2 cells = experiment: Effect of phenylalanine on doxorubicin-induced H9C2 cells; assay type: cell-based; details: DOX 1 µM + Phe 18.5 µM, 24 h
Procedure: H9C2 cells were seeded in 96-well plates at a density of 5 × 10⁴ cells per well (in 100 µL medium) and allowed to adhere for 12 h. The cells were then treated for 24 h with either DOX (1 µM) alone or DOX (1 µM) in combination with Phe (18.5 µM; a concentration derived from the dosing conversion ratio used in prior rat experiments). An untreated group served as the control. Cell viability was determined by measuring the optical density at 450 nm using a microplate reader. The levels of CK, LDH, SOD, and MDA were quantified using commercial assay kits.

DOX-induced CHF rats [10] = experiment: Oxidative stress in heart and liver tissue (SOD, MDA, ROS, PTGS2); assay type: in vivo, rat; details: experiment II
Procedure: as §1, with “Immunofluorescence staining was performed on tissue sections to detect phenylalanine hydroxylase (PAH), prostaglandin-endoperoxide synthase 2 (PTGS2), and reactive oxygen species (ROS). Primary antibodies against PAH and PTGS2 were used, while ROS was detected using the DCFH-DA probe. Nuclei were counterstained with DAPI. Images were captured using a fluorescence microscope. Serum” for “Serum”

heart tissues = experiment: Transmission electron microscopy of heart tissue; assay type: in vivo, rat; details: experiment II; DOX alone, co-treatments vs DOX
Procedure: Freshly excised heart tissues were immediately fixed in 2.5% glutaraldehyde at 4 °C overnight. After washing with 0.1 M cacodylate trihydrate buffer, samples were post-fixed with 1% osmium tetroxide for 1 h. Tissues were then dehydrated through a graded ethanol series, incubated in acetone, and embedded in epoxy resin. Ultrathin sections were mounted on copper grids and imaged using a Hitachi HT7800 transmission electron microscope (Tokyo, Japan).

phenylalanine metabolism = experiment: Phenylalanine and tyrosine levels in rat serum, liver and heart tissues (LC/MS); assay type: in vivo
Procedure: Phenylalanine and tyrosine in the different rat bio-samples were analyzed by LC/MS using an Agilent 1290 Ultra high-performance liquid chromatography (UHPLC) and an Agilent 6460 triple-quadrupole tandem mass spectrometer (QQQ-MS) (Agilent Inc, USA). Data were acquired by using an Agilent Zorbax SB-C18 column (3.0 × 150 mm, 5 μm) as described previously.

[11] = DOX + phenylalanine vs DOX group
[12] = experiment II, co-treatment vs DOX group

Chain of Phenylalanine hydroxylase (PAH) protein (P00439 whole entry): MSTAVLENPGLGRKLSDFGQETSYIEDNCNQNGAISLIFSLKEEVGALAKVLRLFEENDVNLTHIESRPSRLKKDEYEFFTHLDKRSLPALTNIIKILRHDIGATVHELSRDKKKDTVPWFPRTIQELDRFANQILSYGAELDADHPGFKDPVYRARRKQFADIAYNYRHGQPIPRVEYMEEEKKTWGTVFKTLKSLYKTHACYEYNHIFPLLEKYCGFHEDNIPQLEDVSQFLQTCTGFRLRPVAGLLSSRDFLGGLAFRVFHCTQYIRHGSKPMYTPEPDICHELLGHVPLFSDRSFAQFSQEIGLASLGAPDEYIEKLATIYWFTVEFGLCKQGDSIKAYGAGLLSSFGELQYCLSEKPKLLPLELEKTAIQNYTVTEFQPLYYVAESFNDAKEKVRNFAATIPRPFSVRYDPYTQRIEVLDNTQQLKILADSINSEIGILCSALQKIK

CCOC(=O)[C@H](CCc1ccccc1)N[C@@H](C)C(=O)N1CCC[C@H]1C(=O)O [ENP, Enalapril]
TUNEL-positive cardiomyocytes ([1]; treated groups vs DOX group): reduction | serum ALT and AST levels (DOX-induced CHF rats [2]; treated groups vs DOX group, experiment I): markedly reduced | body weight (Rat body weight): partially restored | LVEF and LVFS ([3]; DOX + ENP 1.8 mg/kg vs DOX group, p < 0.001): significantly higher

O=c1c2cc(O[C@@H]3O[C@H](CO)[C@@H](O)[C@H](O)[C@H]3O)c(O)cc2oc2cc(O)c([C@@H]3O[C@H](CO)[C@@H](O)[C@H](O)[C@H]3O)c(O)c12 [Neomangiferin]
DOX-induced oxidative stress (SOD, MDA) (AML12 cells [4]): alleviated | PAH activity (enzyme activity assay) [5]: significantly increase | phenylalanine levels in AML12 cells increased by DOX ([5]; BH4 10 μM, timosaponin B-II, neomangiferin, anemarrhenasaponin I 5, 10, 20 μM, timosaponin AIII 0.1, 0.2, 0.5 μM): significantly reduce | Kd [6]: 5.75 µM and < 10 µM | non-cytoxic concentration (AML12 cells [7]): 5 to 20 µM | DOX-induced AML12 cell viability (AML12 cells [7]; DOX 1 µM, 24 h, three concentrations of compound): alleviated | thermal stability of PAH protein (CETSA) [8]: better thermal stability

N[C@@H](Cc1ccccc1)C(=O)O [phenylalanine]
PAH expression in heart tissue [9]: further exacerbated | PAH expression in liver tissue [9]: further exacerbated | DOX-induced cardiotoxicity in H9C2 cells (cell viability, SOD, CK, LDH, MDA) (H9C2 cells): exacerbated | hepatic and cardiac MDA (DOX-induced CHF rats [10]; [11]): marked MDA elevation | hepatic and cardiac SOD activity (DOX-induced CHF rats [10]; [11]): pronounced suppression | ROS production and PTGS2 expression in the heart (DOX-induced CHF rats [10]; co-treatment with DOX): upregulating | DOX-induced cardiac injury and collagen accumulation (H&E and Masson) [1, 12]: exacerbated | DOX-induced increases in serum levels of BNP, CK, LDH, ALT and AST (DOX-induced CHF rats [2]; [12]): largely promoted | mitochondrial ultrastructure of heart (electron microscopy) (heart tissues): more pronounced | serum phenylalanine concentration (phenylalanine metabolism; experiment II, DOX + phenylalanine 280 mg/kg, BH4 14 mg/kg or SXT 16 g/kg): 100.715 µM | increase in serum phenylalanine levels (phenylalanine metabolism; oral phenylalanine, compared to the DOX group): 16.92% | LVEF and LVFS / DOX-induced cardiac dysfunction ([3]; experiment II, DOX + Phe 280 mg/kg, BH4 14 mg/kg or SXT 16 g/kg vs DOX group): lower

From PMC12794274, “Therapeutic potential of Sheng-Xian-Tang in doxorubicin-induced chronic heart failure by regulation of phenylalanine metabolism disruption” (Chinese Medicine, 2026)
